# Data taken from patent US12071453B2, “Neuroactive steroids, compositions, and uses thereof” (Sage Therapeutics, Inc., priority 2013, dated 2024).
# pIC50: −log10 of the molar value.
# Biological target: T1, GABAA receptors composed of the α1β2γ2 subunits (GABRA1/GABRB2/GABRG2) (Homo sapiens, UniProt P14867+P47870)
# T1 construct: expressed in transfected cells; host or cells: Xenopus laevis oocytes, injected (ratio 1:1:1)
# Test: Two Electrode Voltage Clamp (TEVC), GABA receptor potentiation in Xenopus laevis oocytes, α1β2γ2
# Assay type: cell-based
# Details: 10 μM compound, 10 μM GABA, read-out: GABA (α1β2γ2) % efficacy at 10 μM
# Experimental: The Two Electrode Voltage Clamp (TEVC) technique was used to investigate the effects of compounds at a concentration of 10 μM on GABAA receptors composed of the α1β2γ2 or α4β3δ subunits expressed in oocytes from the Xenopus laevis. GABA-evoked currents were recorded from oocytes that expressed the GABA receptors and the modulatory effects of the test items on these currents were investigated.
# Ovaries were harvested from Xenopus laevis females that had been deeply anesthetized by cooling at 4° C. and immersion in Tricaine methanesulfonate (MS-222 at a concentration of 150 mg/L) in sodium bicarbonate (300 mg/L). Once anesthetized the animal was decapitated and pithed following the rules of animal rights from the Geneva canton. A small piece of ovary was isolated for immediate preparation while the remaining part was placed at 4° C. in a sterile Barth solution containing in mM NaCl 88, KCl 1, NaHCO3 2.4, HEPES 10, MgSO4·7H2O 0.82, Ca(NO3)2·4H2O 0.33, CaCl2·6H2O 0.41, at pH 7.4, and supplemented with 20 μg/ml of kanamycin, 100 unit/ml penicillin and 100 μg/ml streptomycin. All recordings were performed at 18° C. and cells were super-fused with medium containing in mM: NaCl 82.5, KCl 2.5, HEPES 5, CaCl2·2H2O, ·6H2O 1, pH 7.4.
# Plasmids containing the RNAs of the human GABRA1/GABRB2/GABRG2 and GABRA4/GABRB3/GABRD genes were injected into oocytes using a proprietary automated injection device (Hogg el al., J. Neurosci. Methods, (2008) 169: 65-75). These genes encode for the α1β2γ2 and α4β3δ GABAA subunits respectively. Receptor expression was assessed using electrophysiology at least two days later. The ratio of RNA injection for α1β2γ2 was 1:1:1 and for α4β3δ was 5:1:5. Electrophysiological recordings were made using an automated process equipped with standard TEVC and data were captured and analyzed using a proprietary data acquisition and analysis software running under Matlab (Mathworks Inc.). The membrane potential of the oocytes was maintained at −80 mV throughout the experiments. To explore the effects of proprietary compounds, currents were evoked by applying 10 μM (α1β2γ2) or 3 μM (α4β3δ) GABA for 30 s. These concentrations approximated the EC50 concentration of GABA at each receptor subtype. Oocytes were then re-exposed to GABA again for 30 s. 15 s after beginning the GABA application, test article was co-applied at a concentration of 10 μM for 15 s. Potentiation of the peak current was assessed. Data was filtered at 10 Hz, captured at 100 Hz and analyzed using proprietary data acquisition and analysis software running under Matlab (Mathworks Inc.). For statistical analysis values were computed either with Excel (Microsoft) or Matlab (mathworks Inc.). To obtain mean measurements with standard deviations, all experiments were carried out using at least three cells.
# T1 sequence (P14867 28-456): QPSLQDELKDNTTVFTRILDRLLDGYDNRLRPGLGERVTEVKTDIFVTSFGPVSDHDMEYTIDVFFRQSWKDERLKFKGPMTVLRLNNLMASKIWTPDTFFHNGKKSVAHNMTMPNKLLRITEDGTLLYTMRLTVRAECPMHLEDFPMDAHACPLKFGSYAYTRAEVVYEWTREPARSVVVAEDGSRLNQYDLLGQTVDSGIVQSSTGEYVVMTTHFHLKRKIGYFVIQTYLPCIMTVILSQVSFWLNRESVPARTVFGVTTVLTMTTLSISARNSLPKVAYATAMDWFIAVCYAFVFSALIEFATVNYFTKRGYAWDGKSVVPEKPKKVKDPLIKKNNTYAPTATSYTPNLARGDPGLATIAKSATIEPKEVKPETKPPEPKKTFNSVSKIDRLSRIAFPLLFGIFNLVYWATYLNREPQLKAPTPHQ
# T1 sequence (P47870 26-512): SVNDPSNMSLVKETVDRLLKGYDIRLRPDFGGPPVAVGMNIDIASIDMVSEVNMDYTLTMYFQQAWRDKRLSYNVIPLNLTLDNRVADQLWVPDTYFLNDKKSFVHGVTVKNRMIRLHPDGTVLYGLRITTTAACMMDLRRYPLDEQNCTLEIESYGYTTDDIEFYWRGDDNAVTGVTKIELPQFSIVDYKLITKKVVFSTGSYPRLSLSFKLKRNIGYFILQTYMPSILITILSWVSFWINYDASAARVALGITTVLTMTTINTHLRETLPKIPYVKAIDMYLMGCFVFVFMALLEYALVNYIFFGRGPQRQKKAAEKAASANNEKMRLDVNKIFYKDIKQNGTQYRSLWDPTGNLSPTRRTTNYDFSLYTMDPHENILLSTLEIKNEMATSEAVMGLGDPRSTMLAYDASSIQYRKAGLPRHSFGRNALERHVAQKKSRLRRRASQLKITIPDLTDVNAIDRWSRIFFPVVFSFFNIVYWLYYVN
# T1 sequence (P18507 40-475 partner): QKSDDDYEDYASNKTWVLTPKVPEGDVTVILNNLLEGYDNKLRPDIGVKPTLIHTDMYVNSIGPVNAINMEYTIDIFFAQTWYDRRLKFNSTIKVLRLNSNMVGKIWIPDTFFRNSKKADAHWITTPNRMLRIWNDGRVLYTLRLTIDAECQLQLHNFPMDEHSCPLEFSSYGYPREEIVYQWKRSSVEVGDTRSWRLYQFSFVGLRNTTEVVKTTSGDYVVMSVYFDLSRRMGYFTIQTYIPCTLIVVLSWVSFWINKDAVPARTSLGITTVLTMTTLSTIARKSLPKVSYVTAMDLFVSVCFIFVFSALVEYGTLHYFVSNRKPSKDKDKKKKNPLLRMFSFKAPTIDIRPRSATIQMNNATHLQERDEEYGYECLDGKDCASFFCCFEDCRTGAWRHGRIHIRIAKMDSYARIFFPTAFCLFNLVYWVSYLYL
row,SMILES,Emax at 10 µM [%]
1,COC[C@]12CC[C@@](C)(O)C[C@@H]1CC[C@H]1[C@@H]3CC[C@H](C(=O)Cn4nnc5ncc(Cl)cc54)[C@@]3(C)CC[C@@H]12 [Compound 101],500 to 1000
2,COC[C@]12CC[C@@](C)(O)C[C@@H]1CC[C@H]1[C@@H]3CC[C@H](C(=O)Cn4nnc5cc(Cl)cnc54)[C@@]3(C)CC[C@@H]12 [Compound 100],500 to 1000
3,COC[C@]12CC[C@@](C)(O)C[C@H]1CC[C@H]1[C@@H]3CC[C@H](C(=O)Cn4nc5ccc(F)cc5n4)[C@@]3(C)CC[C@@H]12 [Compound 73],500 to 1000
4,COC[C@]12CC[C@@](C)(O)C[C@@H]1CC[C@H]1[C@@H]3CC[C@H](C(=O)Cn4nc5cccc(Cl)c5n4)[C@@]3(C)CC[C@@H]12 [Compound 61],500 to 1000
5,COC[C@]12CC[C@@](C)(O)C[C@@H]1CC[C@H]1[C@@H]3CC[C@H](C(=O)Cn4cc(C)cn4)[C@@]3(C)CC[C@@H]12 [Compound 20],500 to 1000

# Biological target: [35S]-TBPS binding in rat brain cortical membranes
# Test: Steroid inhibition of [35S]-TBPS binding, rat brain cortical membranes
# Details: 3 nM [35S]-TBPS, in the presence of 5 μM GABA, read-out: 35S-TBPS Radioligand Displacement (IC50)
# Experimental: TBPS binding assays using rat brain cortical membranes in the presence of 5 μM GABA has been described (Gee et al, J. Pharmacol. Exp. Ther. 1987, 241, 346-353; Hawkinson et al, Mol. Pharmacol. 1994, 46, 977-985; Lewin, A. H et al., Mol. Pharmacol. 1989, 35, 189-194).
# Briefly, cortices are rapidly removed following decapitation of carbon dioxide-anesthetized Sprague-Dawley rats (200-250 g). The cortices are homogenized in 10 volumes of ice-cold 0.32 M sucrose using a glass/teflon homogenizer and centrifuged at 1500×g for 10 min at 4° C. The resultant supernatants are centrifuged at 10,000×g for 20 min at 4° C. to obtain the P2 pellets. The P2 pellets are resuspended in 200 mM NaCl/50 mM Na—K phosphate pH 7.4 buffer and centrifuged at 10,000×g for 10 min at 4° C. This washing procedure is repeated twice and the pellets are resuspended in 10 volumes of buffer. Aliquots (100 μL) of the membrane suspensions are incubated with 3 nM [^35S]-TBPS and 5 μL aliquots of test drug dissolved in dimethyl sulfoxide (DMSO) (final 0.5%) in the presence of 5 μM GABA. The incubation is brought to a final volume of 1.0 mL with buffer. Nonspecific binding is determined in the presence of 2 μM unlabeled TBPS and ranged from 15 to 25%. Following a 90 min incubation at room temp, the assays are terminated by filtration through glass fiber filters (Schleicher and Schuell No. 32) using a cell harvester (Brandel) and rinsed three times with ice-cold buffer. Filter bound radioactivity is measured by liquid scintillation spectrometry. Non-linear curve fitting of the overall data for each drug averaged for each concentration is done using Prism (GraphPad). […] The concentration of test compound producing 50% inhibition (IC50) of specific binding and the maximal extent of inhibition (Imax) are determined for the individual experiments with the same model used for the overall data and then the mean±SEM.s of the individual experiments are calculated.
# Various compounds are or can be screened to determine their potential as modulators of [^35S]-TBPS binding in vitro. These assays are or can be performed in accordance with the above discussed procedures.
row,SMILES,pIC50
1,COC[C@]12CC[C@@](C)(O)C[C@@H]1CC[C@H]1[C@@H]3CC[C@H](C(=O)CN4CCOCC4)[C@@]3(C)CC[C@@H]12 [Compound 4],< 6.30
2,COC[C@]12CC[C@@](C)(O)C[C@@H]1CC[C@H]1[C@@H]3CC[C@H](C(=O)Cn4nnc5c(F)c(Cl)ccc54)[C@@]3(C)CC[C@@H]12 [Compound 138],6.30 to 7.00
3,COC[C@]12CC[C@@](C)(O)C[C@@H]1CC[C@H]1[C@@H]3CC[C@H](C(=O)Cn4nnc5ncc(Cl)cc54)[C@@]3(C)CC[C@@H]12 [Compound 101],7.30 to 8.00
4,COC[C@]12CC[C@@](C)(O)C[C@@H]1CC[C@H]1[C@@H]3CC[C@H](C(=O)Cn4nnc5cc(Cl)cnc54)[C@@]3(C)CC[C@@H]12 [Compound 100],6.30 to 7.00
5,COC[C@]12CC[C@](O)(C(F)(F)F)C[C@H]1CC[C@H]1[C@@H]3CC[C@H](C(=O)Cn4nc5ccc(F)c(F)c5n4)[C@@]3(C)CC[C@@H]12 [Compound 162],6.30 to 7.00
6,CCOC(=O)c1ccn(CC(=O)[C@H]2CC[C@H]3[C@@H]4CC[C@H]5C[C@H](O)CC[C@]5(COC)[C@H]4CC[C@]23C)n1 [Compound 92],7.30 to 8.00
7,COC[C@]12CC[C@@](C)(O)C[C@H]1CC[C@H]1[C@@H]3CC[C@H](C(=O)Cn4nc5ccc(F)cc5n4)[C@@]3(C)CC[C@@H]12 [Compound 73],> 8.00
8,COC[C@]12CC[C@@](C)(O)C[C@@H]1CC[C@H]1[C@@H]3CC[C@H](C(=O)Cn4nc5cccc(Cl)c5n4)[C@@]3(C)CC[C@@H]12 [Compound 61],> 8.00
9,COC[C@]12CC[C@@](C)(O)C[C@@H]1CC[C@H]1[C@@H]3CC[C@H](C(=O)CN4CCN(C(C)=O)CC4)[C@@]3(C)CC[C@@H]12 [Compound 5],< 6.30
10,COC[C@]12CC[C@](O)(C(F)(F)F)C[C@H]1CC[C@H]1[C@@H]3CC[C@H](C(=O)Cn4nnc5c(F)c(F)ccc54)[C@@]3(C)CC[C@@H]12 [Compound 161],6.30 to 7.00
11,COC[C@]12CC[C@@](C)(O)C[C@@H]1CC[C@H]1[C@@H]3CC[C@H](C(=O)Cn4nc5ccccc5n4)[C@@]3(C)CC[C@@H]12 [Compound 40],7.30 to 8.00
12,CC(=O)N1CCN(CC(=O)[C@H]2CC[C@H]3[C@@H]4CC[C@H]5C[C@](C)(O)CC[C@]5(CO)[C@H]4CC[C@]23C)CC1 [Compound 6],< 6.30
13,COC[C@]12CC[C@@](C)(O)C[C@H]1CC[C@H]1[C@@H]3CC[C@H](C(=O)Cn4nnc5c(F)cccc54)[C@@]3(C)CC[C@@H]12 [Compound 157],7.30 to 8.00
14,COC[C@]12CC[C@@H](O)C[C@@H]1CC[C@H]1[C@@H]3CC[C@H](C(=O)Cn4nccn4)[C@@]3(C)CC[C@@H]12 [Compound 90],7.00 to 7.30
15,C[C@@]1(O)CC[C@@]2(CO)[C@@H](CC[C@H]3[C@@H]4CC[C@H](C(=O)CN5CCN(S(C)(=O)=O)CC5)[C@@]4(C)CC[C@@H]32)C1 [Compound 7],< 6.30
16,COC[C@]12CC[C@@](C)(O)C[C@@H]1CC[C@H]1[C@@H]3CC[C@H](C(=O)Cn4ncc5nccnc54)[C@@]3(C)CC[C@@H]12 [Compound 155],7.00 to 7.30

row,SMILES,pIC50
1,C[C@@]1(O)CC[C@@]2(CO)[C@@H](CC[C@H]3[C@@H]4CC[C@H](C(=O)Cn5cccn5)[C@@]4(C)CC[C@@H]32)C1 [Compound 11],< 6.30
2,COC[C@]12CC[C@@](C)(O)C[C@@H]1CC[C@H]1[C@@H]3CC[C@H](C(=O)Cn4cc(C#N)cn4)[C@@]3(C)CC[C@@H]12 [Compound 127],7.30 to 8.00
3,COC[C@]12CC[C@@](C)(O)C[C@@H]1CC[C@H]1[C@@H]3CC[C@H](C(=O)Cn4nnc5ccc(OC(F)(F)F)cc54)[C@@]3(C)CC[C@@H]12 [Compound 144],7.00 to 7.30
4,COC[C@]12CC[C@@](C)(O)C[C@@H]1CC[C@H]1[C@@H]3CC[C@H](C(=O)Cn4nc5ccc(F)c(F)c5n4)[C@@]3(C)CC[C@@H]12 [Compound 128],> 8.00
5,CCOC[C@]12CC[C@@](C)(O)C[C@@H]1CC[C@H]1[C@@H]3CC[C@H](C(=O)Cn4cc(C#N)cn4)[C@@]3(C)CC[C@@H]12 [Compound 171],7.30 to 8.00
6,COC[C@]12CC[C@@](C)(O)C[C@@H]1CC[C@H]1[C@@H]3CC[C@H](C(=O)Cn4nnc5c(F)c(F)ccc54)[C@@]3(C)CC[C@@H]12 [Compound 114],7.30 to 8.00
7,COC[C@]12CC[C@@](C)(O)C[C@H]1CC[C@H]1[C@@H]3CC[C@H](C(=O)Cn4cc(C)cn4)[C@@]3(C)CC[C@@H]12 [Compound 28],7.00 to 7.30
8,COC[C@]12CC[C@@H](O)C[C@@H]1CC[C@H]1[C@@H]3CC[C@H](C(=O)Cn4cc(C)cn4)[C@@]3(C)CC[C@@H]12 [Compound 93],6.30 to 7.00
9,COC[C@]12CC[C@@](C)(O)C[C@@H]1CC[C@H]1[C@@H]3CC[C@H](C(=O)Cn4nnc5cc(OC(F)(F)F)ccc54)[C@@]3(C)CC[C@@H]12 [Compound 146],7.00 to 7.30
10,C[C@@]1(O)CC[C@@]2(CO)[C@@H](CC[C@H]3[C@@H]4CC[C@H](C(=O)Cn5ccnn5)[C@@]4(C)CC[C@@H]32)C1 [Compound 12],< 6.30
11,COC[C@]12CC[C@@](C)(O)C[C@@H]1CC[C@H]1[C@@H]3CC[C@H](C(=O)Cn4cccn4)[C@@]3(C)CC[C@@H]12 [Compound 2],< 6.30
12,C[C@@]1(O)CC[C@@]2(CO)[C@@H](CC[C@H]3[C@@H]4CC[C@H](C(=O)Cn5nccn5)[C@@]4(C)CC[C@@H]32)C1 [Compound 10],< 6.30
13,COC[C@]12CC[C@@](C)(O)C[C@@H]1CC[C@H]1[C@@H]3CC[C@H](C(=O)Cn4nnc5ccc(F)c(F)c54)[C@@]3(C)CC[C@@H]12 [Compound 115],7.30 to 8.00
14,C[C@@]1(O)CC[C@@]2(CO)[C@@H](CC[C@H]3[C@@H]4CC[C@H](C(=O)CN5CCOCC5)[C@@]4(C)CC[C@@H]32)C1 [Compound 9],< 6.30
15,COC[C@]12CC[C@@](C)(O)C[C@@H]1CC[C@H]1[C@@H]3CC[C@H](C(=O)Cn4cc5nccnc5n4)[C@@]3(C)CC[C@@H]12 [Compound 154],< 6.30
16,COC[C@]12CC[C@@H](O)C[C@@H]1CC[C@H]1[C@@H]3CC[C@H](C(=O)Cn4ccnn4)[C@@]3(C)CC[C@@H]12 [Compound 91],6.30 to 7.00
